From patent publication US10556888B2, “Pyrazole compounds or salts thereof, preparation methods therefor, herbicidal compositions and use thereof” (QINGDAO KINGAGROOT CHEMICAL COMPOUNDS CO., LTD, priority 2015, dated 2020)

Assays:
Type in all cases: in vivo
Monochoria vaginalis = test: Weed control effect evaluation in transplanted rice field; parameters: key: Level 10: completely dead; Level 9: above 90% growth inhibition rate; Level 8: above 80% growth inhibition rate; Level 7: above 70% growth inhibition rate; Level 6: above 60% growth inhibition rate; Level 5: above 50% growth inhibition rate; Level 4: above 30% growth inhibition rate; Level 3: above 20% growth inhibition rate; Level 2: above 10% growth inhibition rate; Level 1: above 1-10% growth inhibition rate; Level 0: no effect; conditions: transplanted rice field pot test, 14 days after treatment
Description: (§1) Rice field soil was loaded into a 1/1,000,000 ha pot. The seeds of Echinochloa, Scirpus juncoides, Bidens tripartite and Sagittaria trifolia were sowed and gently covered with soil, then left to stand still in greenhouse in the state of 0.5-1 cm of water storage. The tuber of Sagittaria trifolia was planted in the next day or 2 days later. It was kept at 3-4 cm of water storage thereafter. The weeds were treated by dripping the WP or SC water diluents prepared according to the common preparation method of the compounds of the present invention with pipette homogeneously to achieve specified effective amount when Echinochloa, Scirpus juncoides and Bidens tripartite reached 0.5 leaf stage and Sagittaria trifolia reached the time point of primary leaf stage.
(§2) The fertility condition of Echinochloa, Scirpus juncoides, Bidens tripartite and Sagittaria trifolia 14 days after the treatment of the compound of the invention and the fertility condition of rice 21 days after the treatment of the compound of the invention respectively with the naked eye.
(§3) The seeds of Echinochloa crus-galli, Scirpus juncoides and Monochoria vaginalis were collected from Heilongjing and Jiangsu Province of China.

Scirpus juncoides = test: as above; parameters: key: Level 10: completely dead; Level 9: above 90% growth inhibition rate; Level 8: above 80% growth inhibition rate; Level 7: above 70% growth inhibition rate; Level 6: above 60% growth inhibition rate; Level 5: above 50% growth inhibition rate; Level 4: above 30% growth inhibition rate; Level 3: above 20% growth inhibition rate; Level 2: above 10% growth inhibition rate; Level 1: above 1-10% growth inhibition rate; Level 0: no effect; conditions: transplanted rice field pot test, 14 days after treatment
Description: as §1, §2, §3

Echinochloa crus-galli = test: as above; parameters: key: Level 10: completely dead; Level 9: above 90% growth inhibition rate; Level 8: above 80% growth inhibition rate; Level 7: above 70% growth inhibition rate; Level 6: above 60% growth inhibition rate; Level 5: above 50% growth inhibition rate; Level 4: above 30% growth inhibition rate; Level 3: above 20% growth inhibition rate; Level 2: above 10% growth inhibition rate; Level 1: above 1-10% growth inhibition rate; Level 0: no effect; conditions: transplanted rice field pot test, 14 days after treatment
Description: as §1, §2, §3

[1] = test system: main crop (wheat, corn, rice, soybean, cotton, oilseed, millet and sorghum); test: Post-emergence test experiment, main crops (Table 2); parameters: key: Level 10: completely dead; Level 9: above 90% growth inhibition rate; Level 8: above 80% growth inhibition rate; Level 7: above 70% growth inhibition rate; Level 6: above 60% growth inhibition rate; Level 5: above 50% growth inhibition rate; Level 4: above 30% growth inhibition rate; Level 3: above 20% growth inhibition rate; Level 2: above 10% growth inhibition rate; Level 1: above 1-10% growth inhibition rate; Level 0: no effect; conditions: 3 weeks after spraying, greenhouse
Procedure, shortened: (§4)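 Weed and crop seeds (wheat, corn, rice, soybean, cotton, oilseed, millet, sorghum) grown in soil in greenhouse; sprayed at 2-3 leaf stage, 2-3 weeks after sowing, with compound in acetone/Tween 80/water. Effects assessed after 3 weeks further greenhouse culture.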

Rice = test: Transplanted rice safety evaluation; parameters: key: Level 10: completely dead; Level 9: above 90% growth inhibition rate; Level 8: above 80% growth inhibition rate; Level 7: above 70% growth inhibition rate; Level 6: above 60% growth inhibition rate; Level 5: above 50% growth inhibition rate; Level 4: above 30% growth inhibition rate; Level 3: above 20% growth inhibition rate; Level 2: above 10% growth inhibition rate; Level 1: above 1-10% growth inhibition rate; Level 0: no effect; conditions: transplanted 3 leaf stage japonica rice, 21 days after treatment
Description: In addition, the rice field soil that loaded into the 1/1,000,000 ha pot was leveled to keep water storage at 3-4 cm depth. The 3 leaf stage rice (japonica rice) was transplanted at 3 cm of transplanting depth the next day. The compound of the present invention was treated by the same way after 5 days of transplantation. The fertility condition of Echinochloa, Scirpus juncoides, Bidens tripartite and Sagittaria trifolia 14 days after the treatment of the compound of the invention and the fertility condition of rice 21 days after the treatment of the compound of the invention respectively with the naked eye.

[2] = test system: Monocotyledonous and dicotyledonous weed; test: Post-emergence test experiment, weed control effect (Table 2); parameters: key to weed control effect, Setaria viridis (level) / weed control effect, Rorippa indica (level) / weed control effect, Abutilon theophrasti (level) / weed control effect, Echinochloa crus-galli (level) / weed control effect, Digitaria sanguinalis (level): Level 10: completely dead; Level 9: above 90% growth inhibition rate; Level 8: above 80% growth inhibition rate; Level 7: above 70% growth inhibition rate; Level 6: above 60% growth inhibition rate; Level 5: above 50% growth inhibition rate; Level 4: above 30% growth inhibition rate; Level 3: above 20% growth inhibition rate; Level 2: above 10% growth inhibition rate; Level 1: above 1-10% growth inhibition rate; Level 0: no effect; conditions: 3 weeks after spraying, greenhouse
Procedure, shortened: as §4

Row | SMILES | Weed control effect, Monochoria vaginalis (activity level) (Monochoria vaginalis; application rate 60 g/ha) | Weed control effect, Scirpus juncoides (activity level) (Scirpus juncoides; application rate 60 g/ha) | Weed control effect, Echinochloa crus-galli (activity level) (Echinochloa crus-galli; application rate 60 g/ha) | effect on crop, corn (level) ([1]; 30 g/ha) | effect on crop, rice (level) ([1]; 30 g/ha) | effect on crop, wheat (level) ([1]; 30 g/ha) | Rice (safety, activity level) (Rice; application rate 60 g/ha) | weed control effect, Abutilon theophrasti (level) ([2]; 30 g/ha) | weed control effect, Bidens pilosa (level) ([2]; 30 g/ha) | weed control effect, Digitaria sanguinalis (level) ([2]; 30 g/ha) | weed control effect, Echinochloa crus-galli (level) ([2]; 30 g/ha) | weed control effect, Rorippa indica (level) ([2]; 30 g/ha) | weed control effect, Setaria viridis (level) ([2]; 30 g/ha) | also measured
1 | C#CCOCc1c(S(C)(=O)=O)ccc(C(=O)c2c(C3CC3)nn(C)c2OC(=O)c2cnn(C)c2)c1Cl [Compound 60] | 10 | 10 | 10 | 0 | 5 (Level 5: above 50% growth inhibition rate) | 0 | 2 (Level 2: above 10% growth inhibition rate) | 6 (Level 6: above 60% growth inhibition rate) | 4 (Level 4: above 30% growth inhibition rate) | 7 (Level 7: above 70% growth inhibition rate) | 10 | 7 (Level 7: above 70% growth inhibition rate) | 7 (Level 7: above 70% growth inhibition rate) | –
2 | Cc1nn(C)cc1C(=O)Oc1c(C(=O)c2ccc(S(C)(=O)=O)c(COCC(F)F)c2Cl)cnn1C [Compound 40] | 9 (Level 9: above 90% growth inhibition rate) | 9 (Level 9: above 90% growth inhibition rate) | 10 | 0 | 5 (Level 5: above 50% growth inhibition rate) | 0 | 0 | 7 (Level 7: above 70% growth inhibition rate) | 7 (Level 7: above 70% growth inhibition rate) | 10 | 10 | 10 | 9 (Level 9: above 90% growth inhibition rate) | –
3 | CCn1nc(C2CC2)c(C(=O)c2ccc(S(C)(=O)=O)c(COCC(F)F)c2Cl)c1OC(=O)c1cn(C)nc1C [Compound 90] | 10 | 10 | 10 | 1 (Level 1: above 1-10% growth inhibition rate) | 3 (Level 3: above 20% growth inhibition rate) | 0 | 0 | 7 (Level 7: above 70% growth inhibition rate) | 7 (Level 7: above 70% growth inhibition rate) | 10 | 10 | 10 | 10 | –
4 | Cc1ccn(Cc2c(S(C)(=O)=O)ccc(C(=O)c3cnn(C)c3OC(=O)c3cn(C)nc3C)c2Cl)n1 [Compound 06] | – | – | – | – | – | – | – | – | – | – | – | – | – | Weed control effect, Monochoria vaginalis (activity level) (Monochoria vaginalis; application rate 500 g/ha): 10; Weed control effect, Scirpus juncoides (activity level) (Scirpus juncoides; application rate 500 g/ha): 10; Weed control effect, Echinochloa crus-galli (activity level) (Echinochloa crus-galli; application rate 500 g/ha): 10; effect on crop, corn (level) ([1]; 120 g/ha): 0; effect on crop, rice (level) ([1]; 120 g/ha): 1 (Level 1: above 1-10% growth inhibition rate); effect on crop, wheat (level) ([1]; 120 g/ha): 0; Rice (safety, activity level) (Rice; application rate 500 g/ha): 1 (Level 1: above 1-10% growth inhibition rate); weed control effect, Abutilon theophrasti (level) ([2]; 120 g/ha): 7 (Level 7: above 70% growth inhibition rate); weed control effect, Bidens pilosa (level) ([2]; 120 g/ha): 9 (Level 9: above 90% growth inhibition rate); weed control effect, Digitaria sanguinalis (level) ([2]; 120 g/ha): 2 (Level 2: above 10% growth inhibition rate); weed control effect, Echinochloa crus-galli (level) ([2]; 120 g/ha): 10; weed control effect, Rorippa indica (level) ([2]; 120 g/ha): 10; weed control effect, Setaria viridis (level) ([2]; 120 g/ha): 6 (Level 6: above 60% growth inhibition rate)
5 | Cc1nn(C)cc1C(=O)Oc1c(C(=O)c2ccc(S(C)(=O)=O)c(Cn3cc(Cl)cn3)c2Cl)c(C2CC2)nn1C [Compound 10] | – | – | – | – | – | – | – | – | – | – | – | – | – | Weed control effect, Monochoria vaginalis (activity level) (Monochoria vaginalis; application rate 500 g/ha): 10; Weed control effect, Scirpus juncoides (activity level) (Scirpus juncoides; application rate 500 g/ha): 10; Weed control effect, Echinochloa crus-galli (activity level) (Echinochloa crus-galli; application rate 500 g/ha): 10; effect on crop, corn (level) ([1]; 120 g/ha): 0; effect on crop, rice (level) ([1]; 120 g/ha): 1 (Level 1: above 1-10% growth inhibition rate); effect on crop, wheat (level) ([1]; 120 g/ha): 0; Rice (safety, activity level) (Rice; application rate 500 g/ha): 1 (Level 1: above 1-10% growth inhibition rate); weed control effect, Abutilon theophrasti (level) ([2]; 120 g/ha): 7 (Level 7: above 70% growth inhibition rate); weed control effect, Bidens pilosa (level) ([2]; 120 g/ha): 9 (Level 9: above 90% growth inhibition rate); weed control effect, Digitaria sanguinalis (level) ([2]; 120 g/ha): 2 (Level 2: above 10% growth inhibition rate); weed control effect, Echinochloa crus-galli (level) ([2]; 120 g/ha): 10; weed control effect, Rorippa indica (level) ([2]; 120 g/ha): 10; weed control effect, Setaria viridis (level) ([2]; 120 g/ha): 7 (Level 7: above 70% growth inhibition rate)
6 | CCOCc1c(S(C)(=O)=O)ccc(C(=O)c2c(C3CC3)nn(C)c2OC(=O)c2cn(C)nc2C)c1Cl [Compound 46] | 9 (Level 9: above 90% growth inhibition rate) | 9 (Level 9: above 90% growth inhibition rate) | 8 (Level 8: above 80% growth inhibition rate) | 1 (Level 1: above 1-10% growth inhibition rate) | 3 (Level 3: above 20% growth inhibition rate) | 0 | 0 | 7 (Level 7: above 70% growth inhibition rate) | 7 (Level 7: above 70% growth inhibition rate) | 10 | 10 | 10 | 10 | –
7 | C#CCOCc1c(S(C)(=O)=O)ccc(C(=O)c2cnn(C(C)C)c2OC(=O)c2cn(C)nc2C)c1Cl [Compound 100] | 8 (Level 8: above 80% growth inhibition rate) | 10 | 10 | 1 (Level 1: above 1-10% growth inhibition rate) | 5 (Level 5: above 50% growth inhibition rate) | 0 | 0 | 7 (Level 7: above 70% growth inhibition rate) | 7 (Level 7: above 70% growth inhibition rate) | 7 (Level 7: above 70% growth inhibition rate) | 10 | 10 | 10 | –
